Measured values as given in patent US11078175B2, “Substituted dihydrobenzofuran compounds and their use as synergists” (ENDURA S.P.A., priority 2015, dated 2021).

Key:
[1] = biological target: T1, FE4 Myzus persicae esterases (Myzus persicae, UniProt P35502); test: Inhibition of esterase enzymes, 4-nitrophenyl acetate substrate with purified FE4; format: biochemical; details: 2.5 μL of 10 mM compound in acetone added to 50 μL, 10 min incubation, substrate 4-nitrophenyl acetate 0.8 mM final, acetone-only control
T1 construct: would be utilised for the purified esterases from aphids; from tissue; host or cells: aphids (Myzus persicae)
T1 sequence (P35502 24-564): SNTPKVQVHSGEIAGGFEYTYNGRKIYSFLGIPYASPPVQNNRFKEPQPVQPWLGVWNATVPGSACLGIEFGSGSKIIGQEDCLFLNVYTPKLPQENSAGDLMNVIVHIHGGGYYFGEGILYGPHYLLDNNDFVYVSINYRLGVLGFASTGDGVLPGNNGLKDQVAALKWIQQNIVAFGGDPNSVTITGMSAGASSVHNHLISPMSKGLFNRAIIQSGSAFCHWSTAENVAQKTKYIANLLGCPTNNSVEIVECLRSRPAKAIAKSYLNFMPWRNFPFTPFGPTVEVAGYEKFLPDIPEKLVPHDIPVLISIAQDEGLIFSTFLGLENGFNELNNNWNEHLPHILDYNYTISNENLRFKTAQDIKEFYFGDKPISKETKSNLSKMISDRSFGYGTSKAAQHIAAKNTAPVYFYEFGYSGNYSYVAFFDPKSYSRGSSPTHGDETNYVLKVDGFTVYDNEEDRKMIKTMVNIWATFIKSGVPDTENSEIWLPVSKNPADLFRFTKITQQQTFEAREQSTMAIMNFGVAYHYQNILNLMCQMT
Experimental: It was envisaged, therefore, that the ‘esterase intereference assay’ (Khot et al., 2008) would be utilised for the purified esterases from aphids. Various esterase substrates were assessed to find one suitable of monitoring inhibition in an insect homogenate. The Myzus persicae resistance associated esterase, FE4, was used.
From the literature (Philippou et al., 2013) it is known that 1-naphthyl acetate is not suitable for this assay. Instead, 4-nitrophenyl acetate was used. A 10 mM pNA stock was prepared in acetone and added to 0.02 M phosphate buffer pH 7.0 (final concentration 2 mM). The comparison was made with 6 PBO analogues of variable efficacy.
For the assay 10 μL of purified FE4 was diluted to a total volume of 50 μL by the addition of 0.02 M phosphate buffer, pH 7.0 in individual wells of a microplate (maxisorb, NUNC). To each well, 2.5 μL of 10 mM of the compound of Example 1 and of Example 2 in acetone was added and incubated for 10 mins, with acetone only used as a control. Following incubation, 100 μL of 0.02 M phosphate buffer, pH 7.0 and 100 μL of 2 mM 4-nitrophenyl acetate was added (final volume in well 250 μL, final substrate concentration 0.8 mM). Enzyme activity was read at 405 nm in a Spectramax Tmax for 5 min, with readings taken every 5 secs. The rate (mOD min^−1) was calculated by the integrated software, Softmax Pro v.5.4.

[2] = tested on: Bemisia tabaci CYP6CM1; details: recombinant CYP6CM1; 3 μL of 10 mM compound stock in acetone added to 50 μL enzyme; 10 min incubation at room temperature; substrate 7-ethoxycoumarin; acetone-only control
Experimental: Ability of the compounds of the invention to inhibit oxidative enzymes (P450), a major mechanism conferring resistance to xenobiotics, was measured using recombinant enzymes corresponding to CYPCM1 from Bemisia tabaci.
Diluted recombinant enzyme (50 μL) was mixed with 3 μL of a.m compounds stock solutions, with acetone only used as a control. After 10 min incubation at room temperature, 80 μL of 0.125 mM 7-ethoxycoumarin was added, followed by 10 μL 9.6 mM NADPH (nicotinamide adenine dinucleotide phosphate) in 0.1 M sodium phosphate, pH 7.8, and 0-deethylation activity monitored as above. A PBO solution (10 mM) was prepared in the same way as a comparison.

## CCCCCCc1cc2c(c(COCCOCCOCCCC)c1)OCC2 [Compound of Example 2, 5-n-hexyl-7-[[2-(2-Butoxyethoxy)ethoxy]methyl]-2,3-dihydrobenzo furan]
[1]
  remaining activity at 10000 µM (stock): 40.6%
[2]
  % activity remaining: 86.22%

## CCCCOCCOCCOCc1cc(CCC)cc2c1OCC2 [Compound of Example 1, 5-propyl-7-[[2-(2-Butoxyethoxy)ethoxy]methyl]-2,3-dihydrobenzo furan]
[1]
  remaining activity at 10000 µM (stock): 33.2%
[2]
  % activity remaining: 38.47%
